Consider one compound from patent publication US12516053B2, “Bcl-2 inhibitors” (BEIGENE, LTD., priority 2019, dated 2026).

The target of experiment [1] is BA/F3-BCL-2 cells (Homo sapiens, UniProt P10415). As to the kind of experiment: BA/F3 cell proliferation assay, BCL-2 wild type. The format is cell-based, Murine. Particulars: 24 hrs treatment, 3% FBS, CellTiter-Glo, geometric mean of 3 experiments; read-out: Cellular proliferation assay (IC50, nM) Bcl-2 WT; BaF3 cell. The method, then:
(§1) BA/F3 cell Proliferation Assay:
(§2) The cells were treated with a 10-point dilution series of compounds for 24 hrs. After the compound treatment, 30 μl of CellTiter-Glo reagent was added in each well. The effects on proliferation were determined using Cell TiterGlo reagent (Promega) according to the manufacturer's instructions. Luminescent signals were measured using PHERAstar FS plate reader (BMG Labtech). ICS50 values for cell viability were determined with GraphPad Prism software and were the geometric mean of 3 independent experiments.
In general terms: Cellular ATP, detected with luciferase, serves as a proxy for viable cell number.

The target of experiment [2] is Recombinant human Bcl-2 protein (Homo sapiens, UniProt P10415). As to the kind of experiment: Bcl-2 TR-FRET assay. Particulars: TR-FRET, 0.05 nM Bcl-2, FITC labeled Bak peptide 0.5 nM; read-out: Biochemical assay (IC50, nM) Bcl-2 WT. The format is binding. The method, then:
Compounds disclosed herein were tested for blocking of Bcl-2 protein with its ligand in an assay based on Time-Resolved Fluorescence Resonance Energy Transfer (TR-FRET) methodology. Recombinant human 0.05 nM Bcl-2 protein was pre-incubated with a serial dilution of compounds disclosed herein (top final concentration is 1 uM or 0.1 uM or 0.02 uM or 0.01 uM, 10 points) at room temperature for 0.5 hour in an assay buffer containing 20 mM potassium phosphate buffer, pH 7.5, 50 mM NaCl, 1 mM EDTA, 0.05% Tween-20, 0.01% BSA. […] The inhibition percentage of Bcl-2 interaction with its ligand in presence of increasing concentrations of compounds was calculated based on the TR-FRET signals. The IC50 for each compound was derived from fitting the data to the four-parameter logistic equation by Graphpad Prism software or Dotmatics.
A general note: TR-FRET usually uses a lanthanide donor and a delayed reading to cut background.

Experiment [3] relates to RS4;11 (BCL-2 dependent acute lymphoblastic leukemia cell line). As to the kind of experiment: RS4;11 cell proliferation assay. The format is cell-based. To be noted: Homo sapiens, RS4-11, 48 hrs treatment, CellTiter-GLO, read-out: Cellular proliferation assay (IC50, nM) RS4. As to the method:
RS4;11 Cell Proliferation Assay:
Each compound was serially diluted with 1 μM as the maximum concentration. To test the apoptotic effect of the compounds, the cells were seeded at 50,000 in 180 μl per well in 96-well plates and treated with 10-point dilution series of each compound for 48 hrs at 37° C. Cell viability was assessed after the treatment using CellTiter-GLO luminescent assay (Promega) according to the manufacturer's recommendations. Briefly, 30 μl of CellTiter-GLO reagent was added into 200 μl of cell culture, Mixture was agitated on an orbital shaker for 5 mins to ensure cell lysis followed by 7 mins incubation at room temperature to allow development and stabilization of luminescent signals, which corresponded to quantity of ATP and thus the quantity of metabolically active cells. Luminescent signals were measured using PHERAstar FS reader (BMG). Mean IC50 values for cell viability were determined with GraphPad Prism software.

In experiment [4] the test system is Molt-4 (Bcl-xL-dependent ALL cell line). As to the kind of experiment: Molt-4 cell proliferation assay. The format is cell-based. Particulars: Homo sapiens, MOLT-4; CellTiter-GLO; read-out: Cellular proliferation assay (IC50, nM) Molt-4. The source says:
Molt-4 Cell Proliferation Assay:
Each compound was serially diluted with 10 1M as the maximum concentration. The anti-proliferative IC50s of these compounds were similarly determined as a percentage of viable cells upon treatment compared to the untreated control using CellTiter-GLO luminescent assay.

For experiment [5], the target named is BA/F3-BCL-2 G101V cells (Homo sapiens, UniProt P10415, G101V, cells depend on it). As to the kind of experiment: BA/F3 cell proliferation assay, Bcl-2 G101V. The format is cell-based, Murine. To be noted: 24 hrs treatment, 3% FBS, CellTiter-Glo, geometric mean of 3 experiments; read-out: Cellular proliferation assay (IC50, nM) Bcl-2 G101V; BaF3 cell. As to the method:
as §1, §2

Experiment [6] addresses recombinant human Bcl-2-G101V protein (Homo sapiens, UniProt P10415, G101V). As to the kind of experiment: Bcl-2-G101V TR-FRET assay. In kind it is binding. To be noted: TR-FRET, 0.1 nM Bcl-2-G101V, FITC labeled Bak peptide 5 nM; read-out: Biochemical assay (IC50, nM) Bcl-2 G101V. The source says:
The IC50 for each compound was derived from fitting the data to the four-parameter logistic equation by Graphpad Prism software or Dotmatics.

As to `CC(C)c1ccccc1[C@@H]1CCCN1C1CC2(C1)CN(c1ccc(C(=O)NS(=O)(=O)c3ccc(NCC4(F)CCOCC4)c([N+](=O)[O-])c3)c(N3CCCOc4nc5[nH]ccc5cc43)c1)C2` [Example B14, (S)-2-(3,4-dihydro-2H-pyrrolo[3′,2′:5,6]pyrido[2,3-b][1,4]oxazepin-1(7H)-yl)-N-((4-(((4-fluorotetrahydro-2H-pyran-4-yl)methyl)amino)-3-nitrophenyl)sulfonyl)-4-(6-(2-(2-isopropylphenyl)pyrrolidin-1-yl)-2-azaspiro[3.3]heptan-2-yl)benzamide], the IC50 in experiment [1] is 2.4 nM; in experiment [2], 0.11 nM; in experiment [3], 4.8 nM; in experiment [4] it was greater than 10000 nM; in experiment [6], 3.1 nM. Moreover, in experiment [5], the GI50 stood at 26.5 nM.
